In patent US20230348424A1, “HETEROCYCLIC COMPOUNDS AND METHODS OF USE” (Schrödinger, Inc., priority 2022, published 2023):

Biological target: SOS1:KRAS (G12C) interaction (Homo sapiens (Human), UniProt Q07889)
Assay: SOS1 KRas(G12C) FRET Assay
Assay type: binding
Settings: 0.5 nM His10-SOS1 (res. 564-1049), 2.5 nM GST-KRAS G12C (res. 1-169), 2 hrs at RT
Procedure: Inhibition of the SOS 1:KRAS interaction was measured using purified GST-tagged KRAS (res. 1-169, G12C, purified based on Hillig, et al., Proc Natl Acad Sci USA (2019); 116(7):2551-2560) and recombinant His10-SOS1 (res. 564-1049; purified based on Hillig, et al.). The final assay was performed at 20 uL with 0.5 nM SOS1 protein and 2.5 nM KRAS protein in a buffer of PBS, 0.1% BSA, 5 mM MgCh, 0.0025% Igepal, 100 mM KF, 5 mM DTT in a white 384 square well OptiPlate (PerkinElmer, Cat. 6007290). A 2x KRAS working solution was prepared in an assay buffer containing 5 nM GST-KRAS G12C and 2 nM anti-GST-Eu(K) (Cisbio, Cat. 61GSTKLA) and pre-incubated for 15 minutes at 25° C. […] The final DMSO concentration is 0.5%. Plates were incubated at RT for 2 hrs before the FRET signal was measured using Envision at emission 665 nm and 615 nm. FRET signal was converted to percentage of protein-protein interaction using the following equation:
• C: signal with compound treatment • P: signal for positive control (DMSO) • N: signal for negative control (no SOS1 added)
IC50 and Hill coefficients were obtained using Graph Pad Prism (Graph Pad software, Inc, USA) with non-linear regression analysis.

Chain of SOS1:KRAS (G12C) interaction (Q07889 564-1049, stated change not applied): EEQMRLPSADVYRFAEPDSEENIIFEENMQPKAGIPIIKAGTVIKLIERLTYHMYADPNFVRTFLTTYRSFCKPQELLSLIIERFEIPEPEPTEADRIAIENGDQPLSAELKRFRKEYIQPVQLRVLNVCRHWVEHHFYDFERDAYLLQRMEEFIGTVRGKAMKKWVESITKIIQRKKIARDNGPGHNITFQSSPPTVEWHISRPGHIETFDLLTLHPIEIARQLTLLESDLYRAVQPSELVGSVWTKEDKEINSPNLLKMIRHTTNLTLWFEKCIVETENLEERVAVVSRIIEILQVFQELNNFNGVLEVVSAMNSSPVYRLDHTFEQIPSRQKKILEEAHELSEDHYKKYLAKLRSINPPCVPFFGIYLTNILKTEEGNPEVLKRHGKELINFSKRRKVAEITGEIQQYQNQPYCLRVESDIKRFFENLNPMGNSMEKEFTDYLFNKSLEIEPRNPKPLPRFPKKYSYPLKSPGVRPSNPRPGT

Question: Which IC50 does the source give for `C[C@@H](NC(=O)c1cn(C2(C3CCC3)CC2)c(=O)cc1NC1CCN(C)CC1)c1cccc(C(F)F)c1F` [Example 241, (R)-1-(1-cyclobutylcyclopropyl)-N-(1-(3-(difluoromethyl)-2-fluorophenyl)ethyl)-4-((1-methylpiperidin-4-yl)amino)-6-oxo-1,6-dihydropyridine-3-carboxamide] here?
Answer: Its IC50 is 29 nM.

Question: For `C[C@@H](NC(=O)c1cn(C2(C(F)F)CC2)c(=O)cc1N[C@@]12C[C@@H]1CN(C)C2)c1cccc(C(F)F)c1F` [Example 228, N-((R)-1-(3-(difluoromethyl)-2-fluorophenyl)ethyl)-1-(1-(difluoromethyl)cyclopropyl)-4-(((1S,5R)-3-methyl-3-azabicyclo[3.1.0]hexan-1-yl)amino)-6-oxo-1,6-dihydropyridine-3-carboxamide], which IC50 is on record?
Answer: Its IC50 is 64.3 nM.

Question: How did the IC50 turn out when `C[C@@H](NC(=O)c1cn(C2CCC2)c(=O)cc1NC1CCN(C)CC1)c1cccc(S(F)(F)(F)(F)F)c1` [Example 164, (R)-1-cyclobutyl-4-((1-methylpiperidin-4-yl)amino)-6-oxo-N-(1-(3-(pentafluoro-16-sulfaneyl)phenyl)ethyl)-1,6-dihydropyridine-3-carboxamide] was run?
Answer: The IC50 was 13.5 nM.

Question: `C[C@@H](NC(=O)c1cn(C2CCC2)c(=O)cc1N[C@H]1[C@@H]2CN(C)C[C@@H]21)c1cccc(C(F)(F)F)c1F` [Example 207, 1-cyclobutyl-N-((R)-1-(2-fluoro-3-(trifluoromethyl)phenyl)ethyl)-4-(((1R,5S,6s)-3-methyl-3-azabicyclo[3.1.0]hexan-6-yl)amino)-6-oxo-1,6-dihydropyridine-3-carboxamide] was tested. Which IC50 did it give?
Answer: The IC50 was 9.3 nM.

Question: `[2H]C([2H])([2H])N1C[C@@H]2[C@H](C1)[C@H]2Nc1cc(=O)n(C2(C(F)F)CC2)cc1C(=O)N[C@H](C)c1cccc(C(F)F)c1F` [Example 57, N-((R)-1-(3-(difluoromethyl)-2-fluorophenyl)ethyl)-1-(1-(difluoromethyl)cyclopropyl)-4-(((1R,5S,6s)-3-(methyl-d3)-3-azabicyclo[3.1.0]hexan-6-yl)amino)-6-oxo-1,6-dihydropyridine-3-carboxamide] was tested. Which IC50 did it give?
Answer: Its IC50 is 28.2 nM.

Question: How did the IC50 turn out when `C[C@@H](NC(=O)c1cn(C2(C(C)(F)F)CC2)c(=O)cc1NC1CCN(C)CC1)c1cccc(C(F)F)c1F` [Example 230, (R)-1-(1-(1,1-difluoroethyl)cyclopropyl)-N-(1-(3-(difluoromethyl)-2-fluorophenyl)ethyl)-4-((1-methylpiperidin-4-yl)amino)-6-oxo-1,6-dihydropyridine-3-carboxamide] was run?
Answer: The IC50 was 21.9 nM.

Question: How did the IC50 turn out when `C[C@@H](NC(=O)c1cn([C@H]2CCC2(F)F)c(=O)cc1N[C@@H]1[C@@H]2CC[C@H]1CN(C)C2)c1cccc(C(F)F)c1F` [Example 211, 1-((S)-2,2-difluorocyclobutyl)-N-((R)-1-(3-(difluoromethyl)-2-fluorophenyl)ethyl)-4-(((1R,5S,8s)-3-methyl-3-azabicyclo[3.2.1]octan-8-yl)amino)-6-oxo-1,6-dihydropyridine-3-carboxamide] was run?
Answer: The IC50 was 29.4 nM.

Question: Which IC50 does the source give for `C[C@@H](NC(=O)c1cn(C2(C(F)F)CC2)c(=O)cc1N[C@@H]1CCNC2(CC2)C1)c1cccc(C(F)F)c1F` (single isomer, unassigned) [Example 278] here?
Answer: The IC50 was 24.1 nM.

Question: `C[C@@H](NC(=O)c1cn(C2(C(F)F)CC2)c(=O)cc1N[C@H]1[C@@H]2CN(C3CC3)C[C@@H]21)c1cccc(C(F)F)c1F` [Example 60, 4-(((1R,5S,6s)-3-cyclopropyl-3-azabicyclo[3.1.0]hexan-6-yl)amino)-N-((R)-1-(3-(difluoromethyl)-2-fluorophenyl)ethyl)-1-(1-(difluoromethyl)cyclopropyl)-6-oxo-1,6-dihydropyridine-3-carboxamide] was tested. Which IC50 did it give?
Answer: Its IC50 is 41.2 nM.

Question: With `C[C@@H](NC(=O)c1cn(C2(C(F)F)CC2)c(=O)cc1N[C@H]1CCN2CCC[C@H]2C1)c1cccc(C(F)F)c1F` (single isomer, unassigned) [Example 305] as the molecule, how does the IC50 read?
Answer: Its IC50 is 23.3 nM.

Question: `C[C@@H](NC(=O)c1cn(C2(CF)CC2)c(=O)cc1N[C@@H]1[C@@H]2CC[C@H]1CN(C)C2)c1cccc(C(F)F)c1F` (single isomer, unassigned) [Example 261] was tested. Which IC50 did it give?
Answer: The IC50 was 41.4 nM.

Question: How did the IC50 turn out when `Cc1c([C@@H](C)NC(=O)c2cn(C3CCOCC3)c(=O)cc2NC2CCN(CC(F)(F)F)CC2)cccc1C(F)(F)F` [Example 15, (R)-N-(1-(2-methyl-3-(trifluoromethyl)phenyl)ethyl)-6-oxo-1-(tetrahydro-2H-pyran-4-yl)-4-((1-(2,2,2-trifluoroethyl)piperidin-4-yl)amino)-1,6-dihydropyridine-3-carboxamide] was run?
Answer: Its IC50 is 847 nM.

Question: With `C[C@@H](NC(=O)c1cn([C@@H]2CCC2(F)F)c(=O)cc1N[C@H]1[C@@H]2CC[C@H]1CN(C)C2)c1cccc(C(F)F)c1F` [Example 213, 1-((R)-2,2-difluorocyclobutyl)-N-((R)-1-(3-(difluoromethyl)-2-fluorophenyl)ethyl)-4-(((1R,5S,8r)-3-methyl-3-azabicyclo[3.2.1]octan-8-yl)amino)-6-oxo-1,6-dihydropyridine-3-carboxamide] as the molecule, how does the IC50 read?
Answer: The IC50 was 149 nM.

Question: Which IC50 does the source give for `C[C@@H](NC(=O)c1cn(C23CC(C2)C3)c(=O)cc1N[C@H]1[C@@H]2CN(C)C[C@@H]21)c1cccc(C#N)c1Cl` (single isomer, unassigned) [Example 177] here?
Answer: Its IC50 is 55.6 nM.

Question: For `C[C@@H](NC(=O)c1cn(C2(C(F)F)CC2)c(=O)cc1N[C@@H]1CCCn2cncc21)c1cccc(C(F)F)c1F` (single isomer, unassigned) [Example 184], which IC50 is on record?
Answer: The IC50 was 55.8 nM.

Question: `C[C@@H](NC(=O)c1cn(C2(C(F)F)CC2)c(=O)cc1NC[C@@H]1[C@H]2CN(C)C[C@@H]12)c1cccc(C(F)F)c1F` [Example 226, N-((R)-1-(3-(difluoromethyl)-2-fluorophenyl)ethyl)-1-(1-(difluoromethyl)cyclopropyl)-4-((((1R,5S,6s)-3-methyl-3-azabicyclo[3.1.0]hexan-6-yl)methyl)amino)-6-oxo-1,6-dihydropyridine-3-carboxamide] was tested. Which IC50 did it give?
Answer: The IC50 was 35.3 nM.

Question: For `Cc1cc([C@H](C)NC(=O)c2cn(C3(C(F)F)CC3)c(=O)cc2NC2CCN(C)CC2)cc(C(F)(F)F)n1` (single isomer, unassigned) [Example 172], which IC50 is on record?
Answer: Its IC50 is > 10000 nM.

Question: With `Cc1c([C@@H](C)NC(=O)c2cn(C3CCOCC3)c(=O)cc2NC2CN(C)C2)cccc1C(F)(F)F` [Example 28, (R)-N-(1-(2-methyl-3-(trifluoromethyl)phenyl)ethyl)-4-((1-methylazetidin-3-yl)amino)-6-oxo-1-(tetrahydro-2H-pyran-4-yl)-1,6-dihydropyridine-3-carboxamide] as the molecule, how does the IC50 read?
Answer: The IC50 was 59.2 nM.

Question: With `C[C@@H](NC(=O)c1cn(C2(C(F)F)CC2)c(=O)cc1N[C@@H]1[C@@H]2CN(C)C[C@@H]21)c1cccc(C(F)F)c1F` [Example 56, N-((R)-1-(3-(difluoromethyl)-2-fluorophenyl)ethyl)-1-(1-(difluoromethyl)cyclopropyl)-4-(((1R,5S,6r)-3-methyl-3-azabicyclo[3.1.0]hexan-6-yl)amino)-6-oxo-1,6-dihydropyridine-3-carboxamide] as the molecule, how does the IC50 read?
Answer: Its IC50 is 34.2 nM.

Question: For `C[C@@H](NC(=O)c1cn(C2(C(F)F)CCC2)c(=O)cc1N[C@@H]1[C@@H]2C[C@H]1CN(C)C2)c1cccc(C(F)F)c1F` (single isomer, unassigned) [Example 252], which IC50 is on record?
Answer: Its IC50 is 17 nM.

Question: With `Cc1c([C@@H](C)NC(=O)c2cn(C3CCOCC3)c(=O)cc2NC2CCN(C)CC2)cccc1C(F)(F)F` [Example 1, (R)-N-(I-(2-methyl-3-(trifluoromethyl)phenyl)ethyl)-4-((I-methylpiperidin-4-yl)amino)-6-oxo-1-(tetrahydro-2H-pyran-4-yl)-1,6-dihydropyridine-3-carboxamide] as the molecule, how does the IC50 read?
Answer: Its IC50 is 27.4 nM.
